Experimental data published in patent US20170114049A1, “2,5-DISUBSTITUTED CYCLOPENTANE CARBOXYLIC ACIDS FOR THE TREATMENT OF RESPIRATORY TRACT DISEASES” (BAYER PHARMA AKTIENGESELLSCHAFT, priority 2014, published 2017).
Converted amounts (≈) assume the structure as drawn.

What was measured:
rat hepatocytes = assay: Hepatocyte assay for determination of metabolic stability; details: after incubation with rat hepatocytes
Experimental: Seven samples from the incubation solution are taken for the LC-MS analysis within a fixed time pattern, in order to determine the half-life (i.e. the degradation) of the particular compound. This half life is used to calculate various “Clearance” parameters (CL) and “Fmax” values (see below).
The CL and Fmax values are a measure of the phase 1 and phase 2 metabolism of the compounds in the hepatocytes. In order to minimize the influence of the organic solvent on the enzymes in the incubation batches, the concentration thereof is generally limited to 1% (acetonitrile) or 0.1% (DMSO).
For all species and breeds, a hepatocyte cell count in the liver of 1.1*10^8 cells/g of liver is expected.
The parameters calculated and the meanings thereof are: • Fmax well-stirred [%] maximum possible bioavailability after oral administration • Calculation: (1-CLblood well-stirred/QH)*100 • CLblood well-stirred [L/(h*kg)] calculated blood clearance (well-stirred model) • Calculation: (QH*CLintrinsic)/(QH+CL′intrinsic) • CL′intrinsic[ml/(min*kg)] maximum ability of the liver (of the hepatocytes) to metabolize a compound (assuming that the liver blood flow is not rate-limiting) • Calculation: CLintrinsic, apparent* species-specific hepatocyte count [1.1* 10^8/g liver]*species-specific liver weight [g/kg] • CL′intrinsic, apparent[ml/(min*mg)] normalizes the elimination constant by dividing it by the hepatocyte cell count x used (x*10^6/ml) • Calculation: kcl[1/min]/(cell count [x*10^6]/incubation volume [ml]) • (QH=species-specific liver blood flow).

[1] = molecular target: T1, human macrophage elastase (HME/hMMP-12) (Homo sapiens, UniProt P39900); assay: In vitro HME inhibition test (standard or high-sensitivity); type: biochemical; details: standard or high-sensitivity HME inhibition test; read-out: HME/hMMP-12 IC50
T1 construct: 0.5 nM HME; purchased R&D Systems 917-MP
Experimental: The potency of the compounds according to the invention with respect to HME (MMP-12) is determined in an in vitro inhibition test. The HME-mediated amidolytic cleavage of a suitable peptide substrate leads to an increase in fluorescent light therein. The signal intensity of the fluorescent light is directly proportional to the enzyme activity. The active concentration of a test compound at which half the enzyme is inhibited (50% signal intensity of the fluorescent light) is reported as the IC50 value.
In a 384 hole microtiter plate, in a total test volume of 41 μl, the test buffer (0.1 M HEPES pH 7.4, 0.15 M NaCl, 0.03 M CaCl2, 0.004 mM ZnCl2, 0.02 M EDTA, 0.005% Brij®), the enzyme (0.5 nM HME; from R&D Systems, 917-MP, autocatalytic activation according to the manufacturer's instructions) and the intramolecularly quenched substrate [5 μM Mca-Pro-Leu-Gly-Leu-Glu-Glu-Ala-Dap(Dnp)-NH2; Bachem, M-2670] are incubated in the absence and presence of the test substance (as a solution in DMSO) at 37° C. for two hours. The fluorescence intensity of the test mixtures is measured (excitation […], emission 393 nm). The IC50 values are ascertained by plotting the fluorescent light intensity against the active ingredient concentration.
In this case, an enzyme concentration ten times lower is used (final concentration, for example, 0.05 nM) in order to achieve an elevated test sensitivity. The incubation period chosen for the test is correspondingly longer (for example 16 hours).

[2] = Determination of solubility in PBS buffer pH 6.5; details: PBS buffer pH 6.5, 1% DMSO, room temperature; for Solubility: 24 h; for solubility at 24 h: PBS buffer, pH 6.5, aqueous buffer, kinetic from dmso stock
Experimental: The test substance is dissolved in DMSO. An aliquot is taken from this solution and introduced into PBS buffer pH 6.5 (DMSO content: 1%). This solution/suspension is agitated at room temperature for 24 h. After ultracentrifugation at 114000 g for 30 min, the supernatant is removed, diluted with acetonitrile/water 8:2 and analysed by LC-MSMS. Quantification is effected by means of a five-point calibration curve of the test compound in DMSO.

T1 sequence (P39900 106-470): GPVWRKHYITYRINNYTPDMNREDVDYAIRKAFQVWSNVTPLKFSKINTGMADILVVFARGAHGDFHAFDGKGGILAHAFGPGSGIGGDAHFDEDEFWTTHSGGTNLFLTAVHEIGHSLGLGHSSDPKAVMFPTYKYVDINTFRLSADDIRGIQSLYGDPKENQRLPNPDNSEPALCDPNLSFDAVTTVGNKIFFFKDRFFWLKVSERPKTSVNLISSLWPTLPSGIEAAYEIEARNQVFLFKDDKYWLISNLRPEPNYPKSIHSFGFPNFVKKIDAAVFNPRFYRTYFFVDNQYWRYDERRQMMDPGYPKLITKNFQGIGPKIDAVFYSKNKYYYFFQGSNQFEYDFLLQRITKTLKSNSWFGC

Compound: O=C(O)[C@@H]1[C@@H](Cn2nnc3ccccc3c2=O)CC[C@H]1C(=O)c1ccc(OCCC2CCOCC2)cc1 (racemic) [Example 5, (+)-(1RS,2SR,5RS)-2-[(4-Oxo-1,2,3-benzotriazin-3(4H)-yl)methyl]-5-{4-[2-(tetrahydro-2H-pyran-4-yl)ethoxy]benzoyl}cyclopentanecarboxylic acid]
- CLblood (calculated blood clearance, well-stirred) (rat hepatocytes): 14.5 mL/min/kg
- Fmax (maximum possible bioavailability after oral administration, well-stirred) (rat hepatocytes): 79.2%

Compound: O=C(O)[C@@H]1[C@@H](Cn2nnc3ccc(C(F)(F)F)cc3c2=O)CC[C@H]1C(=O)c1ccc(OCCC2CCOCC2)cc1 (racemic) [Example 11, (+)-(1RS,2SR,5RS)-2-{[4-Oxo-6-(trifluoromethyl)-1,2,3-benzotriazin-3(4H)-yl]methyl}-5-{4-[2-(tetrahydro-2H-pyran-4-yl)ethoxy]benzoyl}cyclopentanecarboxylic acid]
- CLblood (calculated blood clearance, well-stirred) (rat hepatocytes): 5 mL/min/kg
- Fmax (maximum possible bioavailability after oral administration, well-stirred) (rat hepatocytes): 92.9%

Compound: O=C(O)[C@H]1[C@H](Cn2nnc3ccc(C(F)(F)F)cc3c2=O)CC[C@@H]1C(=O)c1ccc(SCC2CCOCC2)cc1 (racemic) [Example 13, (+/−)-(1RS,2SR,5RS)-2-{[4-Oxo-6-(trifluoromethyl)-1,2,3-benzotriazin-3 (4H)-yl]methyl}-5-{4-[(tetrahydro-2H-pyran-4-ylmethyl)sulphanyl]benzoyl}cyclopentanecarboxylic acid]
- IC50 [1]: 0.48 nM

Compound: O=C(O)[C@@H]1[C@@H](Cn2nnc3ccc(C(F)(F)F)cc3c2=O)CC[C@H]1C(=O)c1ccc(SCC2CCOCC2)cc1 (racemic) [Example 15, (+)-(1RS,2SR,5RS)-2-{[4-Oxo-6-(trifluoromethyl)-1,2,3-benzotriazin-3(4H)-yl]methyl}-5-{4-[(tetrahydro-2H-pyran-4-ylmethyl)sulphanyl]benzoyl}cyclopentanecarboxylic acid]
- CLblood (calculated blood clearance, well-stirred) (rat hepatocytes): 2.67 mL/min/kg
- Fmax (maximum possible bioavailability after oral administration, well-stirred) (rat hepatocytes): 96.1%
- Solubility [2]: 100 µg/mL (≈ 174 µM)

Compound: Cc1ccc2nnn(C[C@@H]3CC[C@H](C(=O)c4ccc(OCC5CCOCC5)cc4)[C@H]3C(=O)O)c(=O)c2c1 (racemic) [Example 16, (+/−)-(1RS,2SR,5RS)-2-[(6-Methyl-4-oxo-1,2,3-benzotriazin-3(4H)-yl)methyl]-5-[4-(tetrahydro-2H-pyran-4-ylmethoxy)benzoyl]cyclopentanecarboxylic acid]
- IC50 [1]: 0.17 nM

Compound: Cc1ccc2nnn(C[C@H]3CC[C@@H](C(=O)c4ccc(OCC5CCOCC5)cc4)[C@@H]3C(=O)O)c(=O)c2c1 (racemic) [Example 18, (−)-(1RS,2SR,5RS)-2-[(6-Methyl-4-oxo-1,2,3-benzotriazin-3(4H)-yl)methyl]-5-[4-(tetrahydro-2H-pyran-4-ylmethoxy)benzoyl]cyclopentanecarboxylic acid]
- Solubility [2]: 330 µg/mL (≈ 653 µM)

Compound: Cc1ccc2nnn(C[C@H]3CC[C@@H](C(=O)c4ccc(OCCC5CCOCC5)cc4)[C@@H]3C(=O)O)c(=O)c2c1 (racemic) [Example 20, (+)-(1RS,2SR,5RS)-2-[(6-Methyl-4-oxo-1,2,3-benzotriazin-3(4H)-yl)methyl]-5-{4-[2-(tetrahydro-2H-pyran-4-yl)ethoxy]benzoyl}cyclopentanecarboxylic acid]
- CLblood (calculated blood clearance, well-stirred) (rat hepatocytes): 12.8 mL/min/kg
- Fmax (maximum possible bioavailability after oral administration, well-stirred) (rat hepatocytes): 81.8%

Compound: O=C(O)[C@@H]1[C@@H](Cn2nnc3ccc(C(F)(F)F)cc3c2=O)CC[C@H]1C(=O)c1ccc(SCC2CCOCC2)cc1 (single isomer, unassigned) [Example 14, (−)-(1RS,2SR,5RS)-2-{[4-Oxo-6-(trifluoromethyl)-1,2,3-benzotriazin-3(4H)-yl]methyl}-5-{4-[(tetrahydro-2H-pyran-4-ylmethyl)sulphanyl]benzoyl}cyclopentanecarboxylic acid]
- IC50 [1]: 10 nM
- solubility at 24 h [2]: 80 µg/mL (≈ 139 µM)

Compound: Cc1ccc2nnn(C[C@H]3CC[C@@H](C(=O)c4ccc(OCC5CCOCC5)cc4)[C@@H]3C(=O)O)c(=O)c2c1 (single isomer, unassigned) [Example 17, (+)-(1RS,2SR,5RS)-2-[(6-Methyl-4-oxo-1,2,3-benzotriazin-3(4H)-yl)methyl]-5-[4-(tetrahydro-2H-pyran-4-ylmethoxy)benzoyl]cyclopentanecarboxylic acid]
- IC50 [1]: 0.03 nM
- solubility at 24 h [2]: 250 µg/mL (≈ 494 µM)

Compound: Cc1ccc2nnn(C[C@H]3CC[C@@H](C(=O)c4ccc(OCC5CCOCC5)cc4)[C@@H]3C(=O)O)c(=O)c2c1 (single isomer, unassigned) [Example 18, (−)-(1RS,2SR,5RS)-2-[(6-Methyl-4-oxo-1,2,3-benzotriazin-3(4H)-yl)methyl]-5-[4-(tetrahydro-2H-pyran-4-ylmethoxy)benzoyl]cyclopentanecarboxylic acid]
- IC50 [1]: 3.3 nM

Compound: Cc1ccc2nnn(C[C@H]3CC[C@@H](C(=O)c4ccc(OCCC5CCOCC5)cc4)[C@@H]3C(=O)O)c(=O)c2c1 (single isomer, unassigned) [Example 21, (−)-(1RS,2SR,5RS)-2-[(6-Methyl-4-oxo-1,2,3-benzotriazin-3(4H)-yl)methyl]-5-{4-[2-(tetrahydro-2H-pyran-4-yl)ethoxy]benzoyl}cyclopentanecarboxylic acid]
- IC50 [1]: 78 nM

Compound: O=C(O)[C@@H]1[C@@H](Cn2nnc3ccccc3c2=O)CC[C@H]1C(=O)c1ccc(OCCC2CCOCC2)cc1 (stereo in doubt) [Example 6, (−)-(1RS,2SR,5RS)-2-[(4-Oxo-1,2,3-benzotriazin-3(4H)-yl)methyl]-5-{4-[2-(tetrahydro-2H-pyran-4-yl)ethoxy]benzoyl}cyclopentanecarboxylic acid]
- IC50 [1]: 80 nM
- Solubility [2]: 354.9 µg/mL (≈ 702 µM)

Compound: O=C(O)[C@@H]1[C@@H](Cn2nnc3ccc(C(F)(F)F)cc3c2=O)CC[C@H]1C(=O)c1ccc(OCCC2CCOCC2)cc1 (stereo in doubt) [Example 12, (−)-(1RS,2SR,5RS)-2-{[4-Oxo-6-(trifluoromethyl)-1,2,3-benzotriazin-3(4H)-yl]methyl}-5-{4-[2-(tetrahydro-2H-pyran-4-yl)ethoxy]benzoyl}cyclopentanecarboxylic acid]
- IC50 [1]: 90 nM
- Solubility [2]: 240 µg/mL (≈ 418 µM)

Compound: (−)-(1RS,2SR,5RS)-2-{[4-Oxo-6-(trifluoromethyl)-1,2,3-benzotriazin-3(4H)-yl]methyl}-5-[4-(tetra-hydro-2H-pyran-4-ylmethoxy)benzoyl]cyclopentanecarboxylic acid [Example 9]
- IC50 [1]: 42 nM
